Test [1] deals with T1, Ephrin type-B receptor 6 (Homo sapiens) (UniProt O15197).
T1 sequence (whole entry): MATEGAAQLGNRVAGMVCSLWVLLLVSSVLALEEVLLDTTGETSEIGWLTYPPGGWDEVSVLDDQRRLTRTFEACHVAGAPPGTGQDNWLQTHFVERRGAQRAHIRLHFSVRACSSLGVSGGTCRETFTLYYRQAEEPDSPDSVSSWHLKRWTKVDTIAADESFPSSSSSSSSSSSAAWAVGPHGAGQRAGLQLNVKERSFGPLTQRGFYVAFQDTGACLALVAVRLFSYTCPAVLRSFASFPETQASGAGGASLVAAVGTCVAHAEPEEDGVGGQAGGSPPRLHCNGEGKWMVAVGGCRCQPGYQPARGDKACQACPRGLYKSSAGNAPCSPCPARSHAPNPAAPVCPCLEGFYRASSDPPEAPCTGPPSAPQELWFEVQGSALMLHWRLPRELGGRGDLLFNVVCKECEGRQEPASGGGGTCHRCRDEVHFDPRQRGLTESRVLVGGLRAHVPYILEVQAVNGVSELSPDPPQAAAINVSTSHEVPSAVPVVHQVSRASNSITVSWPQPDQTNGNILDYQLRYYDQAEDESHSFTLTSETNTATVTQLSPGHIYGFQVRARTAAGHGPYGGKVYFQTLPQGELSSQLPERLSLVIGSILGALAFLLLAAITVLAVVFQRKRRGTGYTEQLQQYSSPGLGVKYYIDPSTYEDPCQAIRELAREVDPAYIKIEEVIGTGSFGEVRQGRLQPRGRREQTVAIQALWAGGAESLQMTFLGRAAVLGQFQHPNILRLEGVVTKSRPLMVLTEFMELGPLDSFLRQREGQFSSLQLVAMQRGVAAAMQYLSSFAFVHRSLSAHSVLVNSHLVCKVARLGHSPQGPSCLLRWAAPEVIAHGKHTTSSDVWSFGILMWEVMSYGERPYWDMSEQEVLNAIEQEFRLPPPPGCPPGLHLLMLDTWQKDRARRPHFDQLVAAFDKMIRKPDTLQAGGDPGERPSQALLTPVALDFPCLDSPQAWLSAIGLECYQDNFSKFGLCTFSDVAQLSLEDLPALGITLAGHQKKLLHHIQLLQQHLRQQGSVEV
As to conditions: at 10 µM.

For test [2], the target named is Myosin light chain kinase 2, skeletal/cardiac muscle (Homo sapiens) (UniProt Q9H1R3). The settings on record: at 10 µM.
Test [3] deals with Receptor tyrosine-protein kinase erbB-2 (Homo sapiens, UniProt P04626). The test can be described thus: Selectivity interaction (KinomeScan (DiscoverX)) EUB0001079a ERBB2. The settings on record: at 1 µM.
For test [4], the target named is Insulin-like growth factor 1 receptor (Homo sapiens, UniProt P08069). The test can be described thus: Selectivity interaction (KinomeScan (DiscoverX)) EUB0000655a IGF1R. The settings on record: at 10 µM.
For test [5], the target named is T2, Ephrin type-B receptor 2 (Homo sapiens) (UniProt P29323).
T2 sequence (whole entry): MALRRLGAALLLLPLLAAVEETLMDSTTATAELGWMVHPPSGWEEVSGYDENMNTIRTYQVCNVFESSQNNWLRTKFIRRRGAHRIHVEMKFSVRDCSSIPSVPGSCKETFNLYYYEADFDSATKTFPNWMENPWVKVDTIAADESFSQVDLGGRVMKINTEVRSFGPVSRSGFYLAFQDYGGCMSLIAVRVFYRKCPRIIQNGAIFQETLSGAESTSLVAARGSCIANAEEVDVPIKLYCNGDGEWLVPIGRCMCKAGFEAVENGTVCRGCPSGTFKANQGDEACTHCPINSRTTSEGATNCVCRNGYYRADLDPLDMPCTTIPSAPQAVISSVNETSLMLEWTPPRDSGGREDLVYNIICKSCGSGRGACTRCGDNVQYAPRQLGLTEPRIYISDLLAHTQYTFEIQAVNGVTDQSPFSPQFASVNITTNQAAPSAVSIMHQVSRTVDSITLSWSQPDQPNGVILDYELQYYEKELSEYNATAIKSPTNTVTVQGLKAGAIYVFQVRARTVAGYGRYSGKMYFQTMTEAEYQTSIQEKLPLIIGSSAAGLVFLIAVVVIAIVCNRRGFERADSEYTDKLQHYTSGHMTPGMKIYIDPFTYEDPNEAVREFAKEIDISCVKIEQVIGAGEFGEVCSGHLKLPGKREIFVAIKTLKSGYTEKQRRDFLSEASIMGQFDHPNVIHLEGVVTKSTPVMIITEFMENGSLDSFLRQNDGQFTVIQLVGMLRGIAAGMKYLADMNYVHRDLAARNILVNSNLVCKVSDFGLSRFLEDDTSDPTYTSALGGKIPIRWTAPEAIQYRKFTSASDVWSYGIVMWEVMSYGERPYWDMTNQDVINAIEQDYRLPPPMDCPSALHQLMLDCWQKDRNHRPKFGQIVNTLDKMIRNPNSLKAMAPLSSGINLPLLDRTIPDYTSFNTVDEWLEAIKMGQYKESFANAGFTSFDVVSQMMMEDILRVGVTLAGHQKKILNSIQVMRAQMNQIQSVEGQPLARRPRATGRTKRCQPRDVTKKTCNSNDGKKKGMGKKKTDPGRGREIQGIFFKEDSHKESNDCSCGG
Kind of test: Selectivity interaction (Kinase screening (Nanosyn)) EUB0000604a EPHB2.

In test [6] the target is T3, Serine/threonine-protein kinase Nek2 (Homo sapiens) (UniProt P51955).
T3 sequence (whole entry): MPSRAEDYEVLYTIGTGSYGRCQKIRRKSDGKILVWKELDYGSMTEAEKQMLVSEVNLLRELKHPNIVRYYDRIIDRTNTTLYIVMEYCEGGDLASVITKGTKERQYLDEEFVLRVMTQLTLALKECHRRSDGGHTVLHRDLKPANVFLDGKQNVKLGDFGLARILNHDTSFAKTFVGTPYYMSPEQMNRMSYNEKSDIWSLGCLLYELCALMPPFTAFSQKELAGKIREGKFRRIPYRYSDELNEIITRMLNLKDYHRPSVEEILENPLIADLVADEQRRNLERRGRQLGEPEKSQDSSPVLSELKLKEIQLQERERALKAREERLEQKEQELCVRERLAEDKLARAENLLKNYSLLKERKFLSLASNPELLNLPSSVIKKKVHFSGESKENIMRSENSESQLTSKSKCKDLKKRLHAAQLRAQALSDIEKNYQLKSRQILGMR
The test can be described thus: Selectivity interaction (Kinase panel (Z-LYTE Assay)) EUB0001632a NEK2. As to conditions: at 10 µM.

Test [7] deals with Tyrosine-protein kinase Fyn (Homo sapiens) (UniProt P06241). The test can be described thus: Selectivity interaction (KinomeScan (DiscoverX)) EUB0000229b FYN. The settings on record: at 10 µM.
Tyrosine-protein kinase Fyn (Homo sapiens), sequence (P06241 2-537 limits assumed): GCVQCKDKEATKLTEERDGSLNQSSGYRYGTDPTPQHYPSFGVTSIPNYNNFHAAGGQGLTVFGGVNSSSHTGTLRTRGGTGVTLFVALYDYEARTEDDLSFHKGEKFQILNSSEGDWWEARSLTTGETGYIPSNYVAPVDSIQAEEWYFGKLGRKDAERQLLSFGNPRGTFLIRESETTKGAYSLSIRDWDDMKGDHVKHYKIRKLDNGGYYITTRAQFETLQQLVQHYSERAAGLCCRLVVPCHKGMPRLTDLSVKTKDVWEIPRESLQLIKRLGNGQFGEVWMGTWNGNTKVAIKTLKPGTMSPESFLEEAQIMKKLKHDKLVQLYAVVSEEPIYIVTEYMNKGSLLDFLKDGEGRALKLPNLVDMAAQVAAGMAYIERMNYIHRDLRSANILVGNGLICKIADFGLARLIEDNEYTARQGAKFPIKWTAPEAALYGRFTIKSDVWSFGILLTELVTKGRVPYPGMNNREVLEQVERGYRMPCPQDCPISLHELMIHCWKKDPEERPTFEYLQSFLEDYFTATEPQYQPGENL

Myosin light chain kinase 2, skeletal/cardiac muscle (Homo sapiens), sequence (Q9H1R3 whole entry): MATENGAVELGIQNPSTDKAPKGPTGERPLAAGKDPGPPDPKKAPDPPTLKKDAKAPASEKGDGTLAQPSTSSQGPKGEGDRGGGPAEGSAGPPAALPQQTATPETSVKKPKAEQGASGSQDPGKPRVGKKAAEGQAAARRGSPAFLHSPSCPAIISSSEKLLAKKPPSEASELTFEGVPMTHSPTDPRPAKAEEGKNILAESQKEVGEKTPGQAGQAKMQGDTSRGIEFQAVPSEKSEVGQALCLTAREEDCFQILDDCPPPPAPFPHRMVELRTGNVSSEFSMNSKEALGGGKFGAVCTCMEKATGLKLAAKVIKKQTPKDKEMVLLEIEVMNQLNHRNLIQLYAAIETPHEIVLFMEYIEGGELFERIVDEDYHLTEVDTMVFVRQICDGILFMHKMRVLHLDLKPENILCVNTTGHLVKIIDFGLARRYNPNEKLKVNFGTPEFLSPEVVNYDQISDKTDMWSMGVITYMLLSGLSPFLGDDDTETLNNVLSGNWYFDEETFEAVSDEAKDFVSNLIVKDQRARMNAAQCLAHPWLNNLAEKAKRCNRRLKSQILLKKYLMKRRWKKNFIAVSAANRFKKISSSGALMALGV
Insulin-like growth factor 1 receptor, sequence (P08069 31-736 limits assumed): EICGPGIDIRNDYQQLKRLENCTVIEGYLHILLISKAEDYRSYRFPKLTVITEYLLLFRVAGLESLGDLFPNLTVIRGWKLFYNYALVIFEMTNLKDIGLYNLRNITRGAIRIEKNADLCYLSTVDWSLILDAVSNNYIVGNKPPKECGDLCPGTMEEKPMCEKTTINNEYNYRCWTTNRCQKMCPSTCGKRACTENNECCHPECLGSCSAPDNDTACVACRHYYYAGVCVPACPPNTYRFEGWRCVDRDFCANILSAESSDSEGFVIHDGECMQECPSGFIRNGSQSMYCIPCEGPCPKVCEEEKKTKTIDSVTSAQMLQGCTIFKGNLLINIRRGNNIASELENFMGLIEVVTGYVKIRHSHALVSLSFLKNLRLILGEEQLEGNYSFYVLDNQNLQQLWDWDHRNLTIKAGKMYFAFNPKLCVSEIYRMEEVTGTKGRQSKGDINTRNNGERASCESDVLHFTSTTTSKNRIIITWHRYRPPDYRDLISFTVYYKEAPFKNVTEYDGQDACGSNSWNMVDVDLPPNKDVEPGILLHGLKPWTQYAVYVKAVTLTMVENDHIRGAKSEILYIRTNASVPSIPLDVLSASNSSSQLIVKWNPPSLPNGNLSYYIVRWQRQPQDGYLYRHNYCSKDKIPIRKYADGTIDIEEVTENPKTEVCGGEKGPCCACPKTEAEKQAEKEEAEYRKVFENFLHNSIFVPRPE
Insulin-like growth factor 1 receptor, sequence (P08069 741-1367 limits assumed): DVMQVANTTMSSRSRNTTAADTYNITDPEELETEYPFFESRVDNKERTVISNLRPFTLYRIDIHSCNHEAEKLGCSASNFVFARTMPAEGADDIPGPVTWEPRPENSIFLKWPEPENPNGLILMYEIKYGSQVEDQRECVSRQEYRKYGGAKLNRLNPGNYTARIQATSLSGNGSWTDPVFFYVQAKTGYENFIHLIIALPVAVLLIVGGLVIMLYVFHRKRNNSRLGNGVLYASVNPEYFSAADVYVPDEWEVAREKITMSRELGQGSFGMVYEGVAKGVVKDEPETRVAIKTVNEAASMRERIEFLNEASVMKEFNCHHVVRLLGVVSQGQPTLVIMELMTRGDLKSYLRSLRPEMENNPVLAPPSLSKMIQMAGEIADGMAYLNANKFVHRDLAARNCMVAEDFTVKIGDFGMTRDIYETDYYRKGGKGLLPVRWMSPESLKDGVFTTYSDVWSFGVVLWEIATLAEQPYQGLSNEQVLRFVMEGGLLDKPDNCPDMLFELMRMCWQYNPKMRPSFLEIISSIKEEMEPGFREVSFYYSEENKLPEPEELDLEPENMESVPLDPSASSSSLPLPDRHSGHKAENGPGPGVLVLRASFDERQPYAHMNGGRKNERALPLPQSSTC
Receptor tyrosine-protein kinase erbB-2, sequence (P04626 whole entry): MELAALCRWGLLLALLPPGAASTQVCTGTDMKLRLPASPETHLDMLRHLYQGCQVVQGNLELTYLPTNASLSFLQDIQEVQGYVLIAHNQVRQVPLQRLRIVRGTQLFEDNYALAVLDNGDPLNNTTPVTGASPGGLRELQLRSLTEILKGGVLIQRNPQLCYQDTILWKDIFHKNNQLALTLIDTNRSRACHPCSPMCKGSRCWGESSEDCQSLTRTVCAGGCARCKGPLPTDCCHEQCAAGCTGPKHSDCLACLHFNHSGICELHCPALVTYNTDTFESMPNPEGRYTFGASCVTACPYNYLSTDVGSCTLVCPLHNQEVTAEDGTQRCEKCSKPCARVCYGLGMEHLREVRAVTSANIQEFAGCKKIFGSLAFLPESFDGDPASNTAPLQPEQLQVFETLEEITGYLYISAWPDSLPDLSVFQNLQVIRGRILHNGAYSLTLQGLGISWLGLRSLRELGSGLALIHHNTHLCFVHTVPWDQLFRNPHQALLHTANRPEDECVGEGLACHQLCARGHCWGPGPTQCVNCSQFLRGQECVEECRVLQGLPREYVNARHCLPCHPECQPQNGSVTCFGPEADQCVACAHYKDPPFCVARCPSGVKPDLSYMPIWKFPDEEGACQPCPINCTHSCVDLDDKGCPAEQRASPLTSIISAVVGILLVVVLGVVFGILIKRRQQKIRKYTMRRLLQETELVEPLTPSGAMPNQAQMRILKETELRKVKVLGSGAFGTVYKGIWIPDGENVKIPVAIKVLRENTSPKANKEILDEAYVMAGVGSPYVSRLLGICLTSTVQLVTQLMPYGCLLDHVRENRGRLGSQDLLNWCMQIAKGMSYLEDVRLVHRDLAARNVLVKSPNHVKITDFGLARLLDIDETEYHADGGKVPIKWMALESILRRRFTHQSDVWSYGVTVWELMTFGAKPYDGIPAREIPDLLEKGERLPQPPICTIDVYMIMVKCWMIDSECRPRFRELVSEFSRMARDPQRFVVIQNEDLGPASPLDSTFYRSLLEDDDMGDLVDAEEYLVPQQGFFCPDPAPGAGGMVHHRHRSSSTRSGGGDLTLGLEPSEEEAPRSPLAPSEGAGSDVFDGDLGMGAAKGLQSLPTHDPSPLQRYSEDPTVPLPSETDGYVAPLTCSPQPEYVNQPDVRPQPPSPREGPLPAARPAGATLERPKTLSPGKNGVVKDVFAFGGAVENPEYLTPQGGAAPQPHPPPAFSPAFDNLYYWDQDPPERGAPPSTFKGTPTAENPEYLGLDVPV

With `Cc1cc([C@@H](C)Nc2ccccc2C(=O)O)c2nc(N3CCOCC3)cc(=O)n2c1` [AZD-6482], the % of control in test [1] is 41%.
Consider `CCN(CC)CCCCNc1ncc2cc(-c3cc(OC)cc(OC)c3)c(NC(=O)NC(C)(C)C)nc2n1`, for which the % of control in test [2] was 100%.
For the compound `Nc1cnc(N2CCc3cc(S(=O)(=O)Nc4c(F)cc(Cl)cc4F)cc(N4CCCC4=O)c32)nc1` [TP-020n], the % of control in test [3] was 100%.
Take `CN(C)CCOc1ccc(-c2nc(-c3ccncc3)c(-c3ccc4c(c3)CC/C4=N\O)[nH]2)cc1`: the % of control in test [4] was 100%.
In the case of `Cc1cnc(Nc2ccc(F)cc2Cl)nc1-c1c[nH]c(C(=O)N[C@H](CO)c2cccc(Cl)c2)c1`, the % of inhibition in test [5] was found to be 0%.
In turn, `Cn1cc(-n2cnc3c(NCc4nc5cc(Cl)c(Cl)cc5[nH]4)nc(N4CCOCC4)nc32)cn1` had a % of control in test [6] of 1.81%.
`COc1cc(N(C)c2ccnc3ccc(C(F)(F)F)cc23)cc(OC)c1OC`: the % binding in test [7] came to 100%.

These data come from ChEMBL document CHEMBL5465560, “Selectivity Literature for EUbOPEN Chemogenomic Library” (2024).
